Reference: patent US11066455B2, “Tmem100 peptides and variants thereof and their use in treating or preventing diseases or conditions” (The Johns Hopkins University, priority 2014, dated 2021)
* marks the point of attachment. Myristoyl = CCCCCCCCCCCCCC(=O)*

B1: Tmem100: 134-amino acid two-transmembrane protein, regulator of TRPA1 (SEQ ID NO: 1/2), expressed in cells (protein, listed as Homo sapiens, listed as Mus musculus)
chain 1: MTEEPIKEILGAPKAHMAATMEKSPKSEVVITTVPLVSEIQLMAATGGTELSCYRCIIPFAVVVFIAGIVVTAVAYSFNSHGSIISIFGLVVLSSGLFLLASSALCWKVRQRSKKAKRRESQTALVANQRSLFA
chain 2: MTEESTKENLGAPKSPTPVTMEKNPKREVVVTTGPLVSEVQLMAATGGAELSCYRCIIPFAVVVFITGIVVTAVAYSFNSHGSIISIFGLVLLSSGLFLLASSALCWKVRQRNKKVKRRESQTALVVNQRCLFA

Columns and labels:
[1] = target: T1, TRPV1 (Mus musculus, UniProt Q704Y3); assay: Calcium imaging of DRG neurons, response to capsaicin (CAP); assay type: cell-based; details: peptide 200 nM pretreatment; 100 nM CAP; IB4-negative DRG neurons
T1 construct: calcium imaging data from the T100-Mut-treated (200 nM) DRG neurons; endogenous in cells; host or cells: primary mouse DRG neurons
T1 sequence (Q704Y3 whole entry): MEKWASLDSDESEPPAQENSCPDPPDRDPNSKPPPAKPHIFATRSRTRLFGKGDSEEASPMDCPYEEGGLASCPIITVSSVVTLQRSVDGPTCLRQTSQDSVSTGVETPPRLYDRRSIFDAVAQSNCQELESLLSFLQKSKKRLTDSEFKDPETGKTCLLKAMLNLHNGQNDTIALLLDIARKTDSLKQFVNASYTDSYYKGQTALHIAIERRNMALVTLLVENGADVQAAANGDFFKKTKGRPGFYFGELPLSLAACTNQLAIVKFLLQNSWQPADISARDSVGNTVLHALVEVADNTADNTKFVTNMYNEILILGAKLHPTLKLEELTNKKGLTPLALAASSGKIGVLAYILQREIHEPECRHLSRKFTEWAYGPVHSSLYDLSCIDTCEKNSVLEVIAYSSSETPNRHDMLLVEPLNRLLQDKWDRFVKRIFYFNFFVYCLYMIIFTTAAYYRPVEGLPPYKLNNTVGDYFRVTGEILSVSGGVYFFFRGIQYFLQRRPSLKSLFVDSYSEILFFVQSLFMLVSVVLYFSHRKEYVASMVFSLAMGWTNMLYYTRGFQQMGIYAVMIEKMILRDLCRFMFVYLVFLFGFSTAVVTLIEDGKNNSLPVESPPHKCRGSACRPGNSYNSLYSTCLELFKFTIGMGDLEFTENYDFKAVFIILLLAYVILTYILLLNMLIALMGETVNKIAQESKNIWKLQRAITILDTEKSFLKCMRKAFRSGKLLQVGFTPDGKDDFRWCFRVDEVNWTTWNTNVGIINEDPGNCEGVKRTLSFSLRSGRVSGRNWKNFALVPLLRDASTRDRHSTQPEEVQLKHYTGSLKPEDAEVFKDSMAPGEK
Description: Calcium imaging assays were performed as previously described (Liu et al., 2009). Cells were loaded with 2 μM fura 2-acetomethoxy ester (Molecular Probes) for 30 min in the dark at room temperature or for 45 minutes at 37° C. for DRG and cell lines, respectively. After washing, cells were imaged at 340 and 380 nm excitation to detect intracellular free calcium under a fluorescent microscope (Nikon Eclipse TE2000-S) and Lambda 10B shutter (Sutter Instrument). The cells were bathed in calcium imaging buffer (pH 7.45, 130 mM NaCl, 3 mM KCl, 2.5 mM CaCl2, 10 mM HEPES, 10 mM glucose, 1.2 mM NaHCO3, with sucrose to increase osmolarity to 290 mOsm). […] Images were processed and analyzed with NIS-Elements BR 2.30 software (Nikon). […] The data was analyzed with the experimenter blinded to the genotypes or constructs transfected.
DRG from 3 to 4-week old mice were collected in cold DH10 medium (90% DMEM/F-12, 10% FBS, 100 U/ml penicillin, and 100 μg/ml Streptomycin, Gibco) and treated with enzyme solution in HBSS containing collagenase (1.65 mg/mL, Worthington CLS I) and dispase (3.55 mg/mL, GIBCO 17105-041) at 37° C. for 30 minutes. […] This efficiency was determined by mCherry(+) divided by total number of cells in the bright fields. […]

[2] = test system: MO-induced pain in wild-type mice; assay: Mustard oil injection in hindpaw: acute nocifensive behavior and von Frey mechanical hyperalgesia; assay type: in vivo, mouse
Description: Mice were placed in a transparent plastic box (4.5×5×10 cm) on a metal mesh and acclimatized for 30 minutes prior to testing. Each mouse was tested more than 5 times at a specific force manually, and the threshold was determined by the lowest force needed to elicit responses more than 50% of the time.
Mice were injected intradermally in the hind paw with 6 μL of 0.2% mustard oil (Sigma-Aldrich 377430) with Hamilton needles (80300). The mice were placed in a plexiglass cylinder, and the total time spent licking and flinching was recorded for the first 10 minutes after injection. Thirty and sixty minutes after injection, the mice were assayed with von Frey filaments for mechanical hyperalgesia.
The sequence from the last 28 amino acids of the C-terminus of the Tmem100-3Q mutant protein was synthesized and myristoylated at its N-terminus (myr-[…]-COOH) (SEQ ID NO: 8) by Twentyfirst Century Biochemicals. […] For the calcium imaging assay, the peptides were added to the calcium imaging buffer with a final concentration of 200 nM and incubated for at least […] at room temperature. For the mice behavioral assays, the peptides (5 μL, 2 mM) were injected subcutaneously in the hindpaw at least 30 minutes before testing. For the rat behavior assays, human T100-3Q (h-T100), a palmitoylated cell permeable peptide mutated based on the C terminus of human sequence in Tmem100, was applied. […]

[3] = test system: ongoing neuropathic pain in SNL rats; assay: Conditioned place preference test for ongoing pain in SNL rats; assay type: in vivo, rat; details: intrathecal 50 μM, 10 μl; scramble peptide-paired chamber as comparison
Description: Ongoing, or spontaneous, pain, which is most bothersome to patients, is difficult to treat and difficult to study in animals. The conditioned place preference test has been successfully developed to reveal the presence of non-evoked, ongoing pain and pain relief based on the preference of an animal for the context paired with a pain-relief treatment. The conditioned place preference can also capture the aversive aspects of pain. Strikingly, many studies have shown that the rodent conditioned place preference test accurately reflects the effectiveness of human clinical treatments. Therefore, this test is a powerful approach to investigate the potential effectiveness of new treatments and mechanisms for relief of ongoing pain. Two previous studies have examined the role of TRPA1 in ongoing pain by the conditioned place preference test. […] Because the antagonists used in those studies (HC030031 and Chem5861528) target TRPA1 monomers, it is possible that T100-Mut can inhibit ongoing pain by modulating the TRPA1/V1 complex. This possibility was tested in rodents with SNL-induced ongoing pain using the conditioned place preference test. […] Systemic administration of gabapentin, an analgesic that is known to alleviate neuropathic pain, was used as a positive control (FIG. 16B).

[4] = test system: capsaicin-induced nocifensive behavior in WT mice; assay: Capsaicin injection: acute nocifensive behavior; assay type: in vivo, mouse; details: capsaicin 0.6 μg, peptide 2 mM
Description: Mice were injected with 6 μL of capsaicin (0.1 μg/μL in normal saline/10% ethanol/0.5% Tween 80) in the hindpaws. The mice were placed in a plexiglass cylinder, and the total time spent licking and flinching was recorded for the first 10 minutes after injection.
(§1) The sequence from the last 28 amino acids of the C-terminus of the Tmem100-3Q mutant protein was synthesized and myristoylated at its N-terminus (myr-[…]-COOH) (SEQ ID NO: 8) by Twentyfirst Century Biochemicals. […] For the calcium imaging assay, the peptides were added to the calcium imaging buffer with a final concentration of 200 nM and incubated for at least […] at room temperature. For the mice behavioral assays, the peptides (5 μL, 2 mM) were injected subcutaneously in the hindpaw at least 30 minutes before testing. For the rat behavior assays, human T100-3Q (h-T100), a palmitoylated cell permeable peptide mutated based on the C terminus of human sequence in Tmem100, was applied. The sequence is Palmitoyl-[…]-COOH (SEQ ID NO: 7).

[5] = test system: TRPA1; assay: Calcium imaging of HEK293T cells expressing TRPA1 and TRPV1 (MO or CA); assay type: cell-based; details: HEK293T TRPA1+TRPV1 with Tmem100
Description: Calcium imaging assays were performed as previously described (Liu et al., 2009). Cells were loaded with 2 μM fura 2-acetomethoxy ester (Molecular Probes) for 30 min in the dark at room temperature or for 45 minutes at 37° C. for DRG and cell lines, respectively. After washing, cells were imaged at 340 and 380 nm excitation to detect intracellular free calcium under a fluorescent microscope (Nikon Eclipse TE2000-S) and Lambda 10B shutter (Sutter Instrument). The cells were bathed in calcium imaging buffer (pH 7.45, 130 mM NaCl, 3 mM KCl, 2.5 mM CaCl2, 10 mM HEPES, 10 mM glucose, 1.2 mM NaHCO3, with sucrose to increase osmolarity to 290 mOsm). The reagents and buffers were applied through a gravity perfusion system at a rate of […], including mustard oil (Sigma 377430), cinnamaldehyde (Sigma C80687), menthol (Sigma M2780), and capsaicin (Sigma M2028). Cells with high baseline 340/380 values (>1.5) were excluded for analysis. For DRG neurons, IB4 staining was performed in the chamber with the dilution of 1:200 (Molecular Probes 121412) for 160 seconds before washing off at the end of each test. Images were processed and analyzed with NIS-Elements BR 2.30 software (Nikon). A responsive cell was defined as one that with greater than a 20% increase in the 340/380 ratio above the baseline. Intracellular calibration for calcium was performed as previously described (Akopian et al., 2007). The data was analyzed with the experimenter blinded to the genotypes or constructs transfected.
DRG from 3 to 4-week old mice were collected in cold DH10 medium (90% DMEM/F-12, 10% FBS, 100 U/ml penicillin, and 100 μg/ml Streptomycin, Gibco) and treated with enzyme solution in HBSS containing collagenase (1.65 mg/mL, Worthington CLS I) and dispase (3.55 mg/mL, GIBCO 17105-041) at 37° C. for 30 minutes. After trituration and centrifugation, cells were resuspended in DH10, plated on glass coverslips coated with poly-D-lysine (0.5 mg/ml, Stoughton, Mass.) and laminin (10 μg/ml, Invitrogen), and cultured overnight in an incubator at 37° C. The neurons were tested within 24 hours. HEK293T, COS-7, and CHO cells were cultured in a medium consisting of 90% DMEM, 10% FBS, 100 U/mL penicillin, and 100 μg/ml Streptomycin. GlutaMAX (Gibco 35050-061) was also added for CHO cells. For calcium imaging, the cells were plated on glass coverslips coated with poly-D-lysine (0.5 mg/ml, Stoughton, Mass.). In the HEK cell studies the denominator is the cells expressing both TRPA1, TRPV1, and the designated constructs (i.e. Tmem100 or Tmem100-3Q mutant). mCherry:TRPV1:Tmem100 was transfected in 1:8:8 ratio into TRPA1 stable cell line (obtained from N. Tigue from GlaxoSmithKline) and used mCherry as the marker for the cells expressing the constructs 18 hours after transfection with Lipofectamine 2000. The transfection efficiency for Tmem100+TRPV1+TRPA1 triple-positive cells is 27±3%. This efficiency was determined by mCherry(+) divided by total number of cells in the bright fields.
as §1

Molecule | percentage of DRG neurons responding to CAP [1] [%] | MO-induced mechanical hyperalgesia (mechanical threshold) ([2]; peptide 5 μl of 2 mM pre-treatment) [g] | MO-induced acute nocifensive behavior (time) ([2]; peptide 5 μl of 2 mM pre-treatment in hindpaw) [s] | conditioned place preference: time in drug-paired chamber, SNL rats [3] | acute nocifensive behaviors induced by intradermal capsaicin injection [4] [s] | percentage of cells responsive to MO ([5]; 100 nM MO) [%] | percentage of cells responsive to CA ([5]; 5 μM CA) [%]
myr-QRVLEQVLQNWSRRANVKQAQKFQVKCT-COOH (Myristoyl-QRVLEQVLQNWSRRANVKQAQKFQVKCT-OH; SMILES CCCCCCCCCCCCCC(=O)N[C@@H](CCC(N)=O)C(=O)N[C@@H](CCCNC(=N)N)C(=O)N[C@H](C(=O)N[C@@H](CC(C)C)C(=O)N[C@@H](CCC(=O)O)C(=O)N[C@@H](CCC(N)=O)C(=O)N[C@H](C(=O)N[C@@H](CC(C)C)C(=O)N[C@@H](CCC(N)=O)C(=O)N[C@@H](CC(N)=O)C(=O)N[C@@H](Cc1c[nH]c2ccccc12)C(=O)N[C@@H](CO)C(=O)N[C@@H](CCCNC(=N)N)C(=O)N[C@@H](CCCNC(=N)N)C(=O)N[C@@H](C)C(=O)N[C@@H](CC(N)=O)C(=O)N[C@H](C(=O)N[C@@H](CCCCN)C(=O)N[C@@H](CCC(N)=O)C(=O)N[C@@H](C)C(=O)N[C@@H](CCC(N)=O)C(=O)N[C@@H](CCCCN)C(=O)N[C@@H](Cc1ccccc1)C(=O)N[C@@H](CCC(N)=O)C(=O)N[C@H](C(=O)N[C@@H](CCCCN)C(=O)N[C@@H](CS)C(=O)N[C@H](C(=O)O)[C@@H](C)O)C(C)C)C(C)C)C(C)C)C(C)C) [scrambled] | 16±1.3 | 0.1 ± 0.03 | 80 ± 9 | no effect | 70 ± 11 |  | 
B1 |  |  |  |  |  | 20 | 30
